Source: patent US11485742B2, “2-azaspiro[3.4]octane derivatives as M4 agonists” (NOVARTIS AG, priority 2019, dated 2022)
Structures can show the parent of a compound that is named as a salt.

Key:
Type in all cases: cell-based
[1] = biological target: T1, Cloned human M1 receptor (CHRM1) (Homo sapiens, UniProt P11229); test: CHRM1 Ca++ Flux Assay (HEK293 M1 cells, agonist mode); conditions: for Emax: Percent Activity (PA), read-out: M1 FDSS PA %; for EC50: geometric mean if tested more than once, read-out: M1 FDSS EC50
T1 construct: expressed in transfected cells; host or cells: HEK293
T1 sequence (P11229 1-460): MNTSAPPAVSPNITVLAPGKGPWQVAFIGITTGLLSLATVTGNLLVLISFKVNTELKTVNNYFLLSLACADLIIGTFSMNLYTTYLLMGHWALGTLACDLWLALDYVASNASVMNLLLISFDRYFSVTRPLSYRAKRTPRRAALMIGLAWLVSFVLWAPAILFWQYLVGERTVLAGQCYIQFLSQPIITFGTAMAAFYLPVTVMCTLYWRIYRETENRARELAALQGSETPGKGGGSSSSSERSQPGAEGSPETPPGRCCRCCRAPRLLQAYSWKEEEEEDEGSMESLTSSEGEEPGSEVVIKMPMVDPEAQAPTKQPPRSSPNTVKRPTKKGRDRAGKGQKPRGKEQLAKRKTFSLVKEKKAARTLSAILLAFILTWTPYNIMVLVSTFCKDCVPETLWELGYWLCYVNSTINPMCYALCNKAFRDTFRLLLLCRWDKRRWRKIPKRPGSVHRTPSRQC
Method in brief: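 HEK293 cells stably expressing human M1 were loaded with Ca++ dye, then given compounds (11-point dose, triplicate) in HBSS −Ca/−Mg, 20 mM HEPES. Ca++ flux was read over 3 min (agonist mode). Four-parameter curves were fitted, with activity as percent of carbachol EC100.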

[2] = biological target: T2, human cloned CHRM3 receptor (Homo sapiens, UniProt P20309); test: CHRM3 Ca++ Flux Assay (M3_CHO cells, agonist mode); conditions: for Emax: Percent Activity (PA) measured to EC100 of Carbachol, read-out: M3 FDSS PA %; for EC50: agonist mode, geometric mean if tested more than once, read-out: M3 FDSS EC50
T2 construct: expressed in transfected cells; host or cells: CHO-K1 (M3_CHO)
Method in brief: (§1)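 CHO-K1 cells stably expressing human M3 or M5 receptor, dye-loaded ≥1 h, treated with 11-point compound doses in triplicate; Ca++ flux read over 3 min (FDSS). Agonist-mode four-parameter fit; percent activity relative to carbachol EC100; repeat tests reported as geometric mean.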

[3] = biological target: T3, human cloned CHRM5 receptor (Homo sapiens, UniProt P08912); test: CHRM5 Ca++ Flux Assay (M5_CHO cells, agonist mode); conditions: for Emax: Percent Activity (PA) measured to EC100 of Carbachol, read-out: M5 FDSS PA %; for EC50: agonist mode, geometric mean if tested more than once, read-out: M5 FDSS EC50
T3 construct: expressed in transfected cells; host or cells: CHO (M5_CHO)
T3 sequence (P08912 1-532): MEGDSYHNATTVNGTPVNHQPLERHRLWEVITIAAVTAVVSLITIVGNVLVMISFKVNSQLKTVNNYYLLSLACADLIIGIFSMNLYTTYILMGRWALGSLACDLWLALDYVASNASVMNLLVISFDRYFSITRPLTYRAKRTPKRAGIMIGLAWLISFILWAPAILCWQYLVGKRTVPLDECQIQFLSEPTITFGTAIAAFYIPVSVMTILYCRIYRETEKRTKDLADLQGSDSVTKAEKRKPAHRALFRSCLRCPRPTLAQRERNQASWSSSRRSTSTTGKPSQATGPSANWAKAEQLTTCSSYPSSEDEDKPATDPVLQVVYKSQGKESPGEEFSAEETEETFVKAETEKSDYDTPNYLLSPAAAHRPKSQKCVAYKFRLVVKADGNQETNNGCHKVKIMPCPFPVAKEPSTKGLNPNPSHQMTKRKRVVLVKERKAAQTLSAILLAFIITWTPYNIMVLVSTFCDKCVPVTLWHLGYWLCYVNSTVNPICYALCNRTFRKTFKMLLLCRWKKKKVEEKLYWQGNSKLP
Method in brief: as §1

T2 sequence (P20309 whole entry): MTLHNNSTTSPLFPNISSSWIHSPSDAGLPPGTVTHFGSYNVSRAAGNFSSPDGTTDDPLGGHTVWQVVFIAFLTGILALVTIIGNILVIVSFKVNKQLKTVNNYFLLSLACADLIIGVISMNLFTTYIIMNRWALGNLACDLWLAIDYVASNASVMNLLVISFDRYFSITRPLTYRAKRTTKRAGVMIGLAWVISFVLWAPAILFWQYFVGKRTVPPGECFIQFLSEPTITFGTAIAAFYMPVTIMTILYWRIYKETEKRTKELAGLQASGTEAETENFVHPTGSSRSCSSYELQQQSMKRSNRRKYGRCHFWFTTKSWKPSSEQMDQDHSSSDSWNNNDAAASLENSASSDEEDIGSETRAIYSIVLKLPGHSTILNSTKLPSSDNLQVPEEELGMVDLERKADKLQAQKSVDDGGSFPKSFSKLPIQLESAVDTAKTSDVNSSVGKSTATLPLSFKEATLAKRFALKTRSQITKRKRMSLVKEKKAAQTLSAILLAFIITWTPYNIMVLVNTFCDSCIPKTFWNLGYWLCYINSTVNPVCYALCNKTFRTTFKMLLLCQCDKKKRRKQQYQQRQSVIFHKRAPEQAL

Row | Structure (SMILES) | Emax [1] | EC50 [1] | Emax [2] | EC50 [2] | Emax [3] | EC50 [3]
1 | Fc1ccc(OC2CCOCC2)c(C2CCN([C@@H]3COC4(C3)CN(c3nncs3)C4)CC2)c1 [Example 5J, (S)-7-(4-(5-fluoro-2-((tetrahydro-2H-pyran-4-yl)oxy)phenyl)piperidin-1-yl)-2-(1,3,4-thiadiazol-2-yl)-5-oxa-2-azaspiro[3.4]octane] | 6% | 1.2 µM | 0% | > 25 µM | 0% | > 25 µM
2 | Fc1ccc(OC[C@H]2COCCO2)c(C2CCN([C@@H]3COC4(C3)CN(c3nncs3)C4)CC2)c1 [Example 5K, (S)-7-(4-(2-(((R)-1,4-dioxan-2-yl)methoxy)-5-fluorophenyl)piperidin-1-yl)-2-(1,3,4-thiadiazol-2-yl)-5-oxa-2-azaspiro[3.4]octane] | 96% | 0.434 µM | 0% | > 25 µM | 0% | 6.64 µM
3 | Fc1ccc(OC[C@@H]2COCCO2)c(C2CCN([C@@H]3COC4(C3)CN(c3nncs3)C4)CC2)c1 [Example 5L, (S)-7-(4-(2-(((S)-1,4-dioxan-2-yl)methoxy)-5-fluorophenyl)piperidin-1-yl)-2-(1,3,4-thiadiazol-2-yl)-5-oxa-2-azaspiro[3.4]octane] | 88% | 0.37 µM | 0% | > 25 µM | 0% | > 25 µM
4 | Fc1cc(O[C@@H]2CCOC2)c(C2CCN([C@@H]3COC4(C3)CN(c3nncs3)C4)CC2)cc1F [Example 5M, (S)-7-(4-(4,5-difluoro-2-(((R)-tetrahydrofuran-3-yl)oxy)phenyl)piperidin-1-yl)-2-(1,3,4-thiadiazol-2-yl)-5-oxa-2-azaspiro[3.4]octane] | 66% | 0.786 µM | 0% | > 25 µM | 0% | > 25 µM
5 | COC(C)(C)CCOc1ccc(F)cc1C1CCN([C@@H]2COC3(C2)CN(c2nncs2)C3)CC1 [Example 5N, (S)-7-(4-(5-fluoro-2-(3-methoxy-3-methylbutoxy)phenyl)piperidin-1-yl)-2-(1,3,4-thiadiazol-2-yl)-5-oxa-2-azaspiro[3.4]octane] | 68% | 2.97 µM | 0% | > 25 µM | 21% | 12.4 µM
6 | Fc1ccc(O[C@H]2CCOC2)c(C2CCN([C@@H]3COC4(C3)CN(c3nncs3)C4)CC2)c1 [Example 5O, (S)-7-(4-(5-fluoro-2-(((S)-tetrahydrofuran-3-yl)oxy)phenyl)piperidin-1-yl)-2-(1,3,4-thiadiazol-2-yl)-5-oxa-2-azaspiro[3.4]octane] | 78% | 0.789 µM | 0% | > 25 µM | 0% | > 25 µM
7 | CC(C)(O)CCOc1ccc(F)cc1C1CCN([C@@H]2COC3(C2)CN(c2nncs2)C3)CC1 [Example 5P, (S)-4-(2-(1-(2-(1,3,4-thiadiazol-2-yl)-5-oxa-2-azaspiro[3.4]octan-7-yl)piperidin-4-yl)-4-fluorophenoxy)-2-methylbutan-2-ol] | 91% | 0.413 µM | 0% | > 25 µM | 0% | > 25 µM
8 | c1ccc(C2CCN([C@@H]3COC4(C3)CN(c3nncs3)C4)CC2)c(OC2COC2)c1 [Example 5Q, (S)-7-(4-(2-(oxetan-3-yloxy)phenyl)piperidin-1-yl)-2-(1,3,4-thiadiazol-2-yl)-5-oxa-2-azaspiro[3.4]octane formate salt] | 86% | 0.864 µM | 0% | > 25 µM | 0% | > 25 µM
9 | COc1ccccc1C1CCN([C@@H]2COC3(C2)CN(c2nncs2)C3)CC1 [Example 5R, (S)-7-(4-(2-methoxyphenyl)piperidin-1-yl)-2-(1,3,4-thiadiazol-2-yl)-5-oxa-2-azaspiro[3.4]octane] | 52% | 0.904 µM | 0% | > 25 µM | 0% | > 25 µM
10 | COCCOc1ccc(F)cc1C1CCN([C@@H]2COC3(C2)CN(c2nncs2)C3)CC1 [Example 5S, (S)-7-(4-(5-fluoro-2-(2-methoxyethoxy)phenyl)piperidin-1-yl)-2-(1,3,4-thiadiazol-2-yl)-5-oxa-2-azaspiro[3.4]octane] | 87% | 0.761 µM | 0% | > 25 µM | 0% | > 25 µM
11 | COc1cc(F)ccc1C1CCN([C@@H]2COC3(C2)CN(c2nncs2)C3)CC1 [Example 5T, (S)-7-(4-(4-fluoro-2-methoxyphenyl)piperidin-1-yl)-2-(1,3,4-thiadiazol-2-yl)-5-oxa-2-azaspiro[3.4]octane] | 57% | 1.79 µM | 0% | > 25 µM | 0% | > 25 µM
12 | CC(C)(O)COc1ccc(F)cc1C1CCN([C@@H]2COC3(C2)CN(c2nncs2)C3)CC1 [Example 5U, (S)-1-(2-(1-(2-(1,3,4-thiadiazol-2-yl)-5-oxa-2-azaspiro[3.4]octan-7-yl)piperidin-4-yl)-4-fluorophenoxy)-2-methylpropan-2-ol] | 75% | 2.44 µM | 0% | > 25 µM | 0% | > 25 µM
